Results on 6 compounds are retold here after ChEMBL document CHEMBL2424645, “Phosphorylated ganciclovir derivatives: design, synthesis and in vitro and in vivo immunomodulatory activity” (Med Chem Res, 2013).

Calls of active or inactive are those of the source. No cut-off for these calls is given here.

The first series deals with Neutrophil. In words: Immunomodulatory activity in human neutrophils assessed as increase in intracellular killing activity at 20 ug/mL after 20 mins by NBT dye reduction assay relative to control.
Settings: not given
The arrangement: scale not given: the % may be the effect or the level left. It counts as functional.
Take `CCOC(=O)C(NCP1(=O)OCC(OCn2cnc3c(=O)[nH]c(N)nc32)CO1)c1ccccc1` (stereo unspecified): the Activity came to 43.11%.
For `NCCNCP1(=O)OCC(OCn2cnc3c(=O)[nH]c(N)nc32)CO1` (stereo unspecified), the Activity was determined as 42.51%.
Consider `CCOC(=O)C(NCP1(=O)OCC(OCn2cnc3c(=O)[nH]c(N)nc32)CO1)c1ccc(O)cc1` (stereo unspecified), for which the Activity is given as 42.46%.
For `Nc1nc2c(ncn2COC2COP(=O)(COCCO)OC2)c(=O)[nH]1` (stereo unspecified), the Activity was found to be 46.44%.
Consider `CCOC(=O)C(CC(C)C)NCP1(=O)OCC(OCn2cnc3c(=O)[nH]c(N)nc32)CO1` (stereo unspecified), for which the Activity was 40.92%.
Consider `Nc1nc2c(ncn2COC2COP(=O)(CSCCO)OC2)c(=O)[nH]1` (stereo unspecified), for which the Activity amounted to 43.73%.

For the next series, the system named is Rattus norvegicus. As to the kind of experiment: Immunomodulatory activity in high fat diet-induced obese Wistar albino rat impaired immune model assessed as IL-1 level at 8 mg/kg, po after 8 weeks by ELISA relative to relative to high fat-diet fed rat with immune dysfunction. The series is classed as functional.
Settings: not given
In general terms: In an ELISA, binding on a coated surface is turned into a signal by an enzyme label.
Turning to `NCCNCP1(=O)OCC(OCn2cnc3c(=O)[nH]c(N)nc32)CO1` (stereo unspecified), the outcome was inactive.
As to `Nc1nc2c(ncn2COC2COP(=O)(COCCO)OC2)c(=O)[nH]1` (stereo unspecified), the outcome was inactive.
Regarding `Nc1nc2c(ncn2COC2COP(=O)(CSCCO)OC2)c(=O)[nH]1` (stereo unspecified), the result was inactive.

Another series deals with Neutrophil. In words: Immunomodulatory activity in human neutrophils assessed as increase in intracellular killing activity at 10 ug/mL after 20 mins by NBT dye reduction assay relative to control. It counts as functional. Details: scale not given: the % may be the effect or the level left.
Settings: not given
With `CCOC(=O)C(NCP1(=O)OCC(OCn2cnc3c(=O)[nH]c(N)nc32)CO1)c1ccccc1` (stereo unspecified), the Activity was 40.62%.
In the case of `NCCNCP1(=O)OCC(OCn2cnc3c(=O)[nH]c(N)nc32)CO1` (stereo unspecified), the Activity came out at 40.12%.
Take `CCOC(=O)C(NCP1(=O)OCC(OCn2cnc3c(=O)[nH]c(N)nc32)CO1)c1ccc(O)cc1` (stereo unspecified): the Activity is listed as 39.58%.
The same measure, in the same setting: under `Nc1nc2c(ncn2COC2COP(=O)(COCCO)OC2)c(=O)[nH]1` (stereo unspecified) stands 34.31%; under `CCOC(=O)C(CC(C)C)NCP1(=O)OCC(OCn2cnc3c(=O)[nH]c(N)nc32)CO1` (stereo unspecified), 39.17%.
In the case of `Nc1nc2c(ncn2COC2COP(=O)(CSCCO)OC2)c(=O)[nH]1` (stereo unspecified), the Activity is given as 32.25%.

Another series deals with Neutrophil. In words: Immunomodulatory activity in human neutrophils assessed as increase in intracellular killing activity at 40 ug/mL after 20 mins by NBT dye reduction assay relative to control. It counts as functional. Details: scale not given: the % may be the effect or the level left.
Settings: not given
Take `CCOC(=O)C(NCP1(=O)OCC(OCn2cnc3c(=O)[nH]c(N)nc32)CO1)c1ccccc1` (stereo unspecified): the Activity is recorded as 46.63%.
Still for that read-out and setting: to `NCCNCP1(=O)OCC(OCn2cnc3c(=O)[nH]c(N)nc32)CO1` (stereo unspecified) belongs 45.35%.
Still for that read-out and setting: under `CCOC(=O)C(NCP1(=O)OCC(OCn2cnc3c(=O)[nH]c(N)nc32)CO1)c1ccc(O)cc1` (stereo unspecified) stands 49.49%.
As to `Nc1nc2c(ncn2COC2COP(=O)(COCCO)OC2)c(=O)[nH]1` (stereo unspecified), the Activity turned out to be 49.85%.
The same measure, in the same setting: under `CCOC(=O)C(CC(C)C)NCP1(=O)OCC(OCn2cnc3c(=O)[nH]c(N)nc32)CO1` (stereo unspecified) stands 49.31%.
For the compound `Nc1nc2c(ncn2COC2COP(=O)(CSCCO)OC2)c(=O)[nH]1` (stereo unspecified), the Activity is on record as 47.93%.

The subject of another series is Rattus norvegicus. In words: Immunomodulatory activity in high fat diet-induced obese Wistar albino rat impaired immune model assessed as IL-6 level at 8 mg/kg, po after 8 weeks by ELISA relative to vehicle-treated control. It counts as functional.
Settings: not given
Turning to `NCCNCP1(=O)OCC(OCn2cnc3c(=O)[nH]c(N)nc32)CO1` (stereo unspecified), the result was inactive.
In the case of `Nc1nc2c(ncn2COC2COP(=O)(COCCO)OC2)c(=O)[nH]1` (stereo unspecified), the outcome was inactive.
On to `Nc1nc2c(ncn2COC2COP(=O)(CSCCO)OC2)c(=O)[nH]1` (stereo unspecified), for which the result was inactive.

Tested on in a further series: not listed separately
In words: Toxicity in Wistar albino rat. The series is classed as organism-based. The note with it: in vivo.
What is called LD50 is the dose at which mortality reaches 50%. `CCOC(=O)C(NCP1(=O)OCC(OCn2cnc3c(=O)[nH]c(N)nc32)CO1)c1ccccc1` (stereo unspecified) registered an LD50 of 80 mg/kg.
In turn, `NCCNCP1(=O)OCC(OCn2cnc3c(=O)[nH]c(N)nc32)CO1` (stereo unspecified) gave an LD50 of 80 mg/kg.
On to `CCOC(=O)C(NCP1(=O)OCC(OCn2cnc3c(=O)[nH]c(N)nc32)CO1)c1ccc(O)cc1` (stereo unspecified), for which the LD50 stood at 80 mg/kg.
`Nc1nc2c(ncn2COC2COP(=O)(COCCO)OC2)c(=O)[nH]1` (stereo unspecified) gave an LD50 of 80 mg/kg.
`CCOC(=O)C(CC(C)C)NCP1(=O)OCC(OCn2cnc3c(=O)[nH]c(N)nc32)CO1` (stereo unspecified): the LD50 came to 80 mg/kg.
On the same count and under the same terms, to `Nc1nc2c(ncn2COC2COP(=O)(CSCCO)OC2)c(=O)[nH]1` (stereo unspecified) belongs 80 mg/kg.

A further series relates to Neutrophil. As to the kind of experiment: Immunomodulatory activity in human neutrophils assessed as increase in intracellular killing activity at 100 ug/mL after 20 mins by NBT dye reduction assay relative to control. It counts as functional. The arrangement: scale not given: the % may be the effect or the level left.
Settings: not given
Turning to `CCOC(=O)C(NCP1(=O)OCC(OCn2cnc3c(=O)[nH]c(N)nc32)CO1)c1ccccc1` (stereo unspecified), the Activity was found to be 52.91%.
Turning to `NCCNCP1(=O)OCC(OCn2cnc3c(=O)[nH]c(N)nc32)CO1` (stereo unspecified), the Activity worked out at 47.3%.
On to `CCOC(=O)C(NCP1(=O)OCC(OCn2cnc3c(=O)[nH]c(N)nc32)CO1)c1ccc(O)cc1` (stereo unspecified), for which the Activity came to 52.31%.
As for `Nc1nc2c(ncn2COC2COP(=O)(COCCO)OC2)c(=O)[nH]1` (stereo unspecified), the Activity worked out at 51.23%.
Turning to `CCOC(=O)C(CC(C)C)NCP1(=O)OCC(OCn2cnc3c(=O)[nH]c(N)nc32)CO1` (stereo unspecified), the Activity was 51.44%.
As for `Nc1nc2c(ncn2COC2COP(=O)(CSCCO)OC2)c(=O)[nH]1` (stereo unspecified), the Activity came to 52.15%.

Another series deals with Neutrophil. As to the kind of experiment: Immunomodulatory activity in human neutrophils assessed as increase in intracellular killing activity at 1000 ug/mL after 20 mins by NBT dye reduction assay relative to control. It counts as functional. Details: scale not given: the % may be the effect or the level left.
Settings: not given
With `CCOC(=O)C(NCP1(=O)OCC(OCn2cnc3c(=O)[nH]c(N)nc32)CO1)c1ccccc1` (stereo unspecified), the Activity stood at 60.32%.
For `NCCNCP1(=O)OCC(OCn2cnc3c(=O)[nH]c(N)nc32)CO1` (stereo unspecified), the Activity was determined as 50.46%.
As for `CCOC(=O)C(NCP1(=O)OCC(OCn2cnc3c(=O)[nH]c(N)nc32)CO1)c1ccc(O)cc1` (stereo unspecified), the Activity was 62.25%.
`Nc1nc2c(ncn2COC2COP(=O)(COCCO)OC2)c(=O)[nH]1` (stereo unspecified): the Activity is listed as 53.02%.
In the case of `CCOC(=O)C(CC(C)C)NCP1(=O)OCC(OCn2cnc3c(=O)[nH]c(N)nc32)CO1` (stereo unspecified), the Activity was 58.03%.
As for `Nc1nc2c(ncn2COC2COP(=O)(CSCCO)OC2)c(=O)[nH]1` (stereo unspecified), the Activity is on record as 55.35%.

For the next series, the system named is Rattus norvegicus. As to the kind of experiment: Immunomodulatory activity in high fat diet-induced obese Wistar albino rat impaired immune model assessed as CRP level at 8 mg/kg, po after 8 weeks by ELISA relative to high fat-diet fed rat with immune dysfunction. It counts as functional.
Settings: not given
On to `CCOC(=O)C(NCP1(=O)OCC(OCn2cnc3c(=O)[nH]c(N)nc32)CO1)c1ccccc1` (stereo unspecified), for which the result was inactive.
Regarding `NCCNCP1(=O)OCC(OCn2cnc3c(=O)[nH]c(N)nc32)CO1` (stereo unspecified), the outcome was inactive.
In the case of `CCOC(=O)C(NCP1(=O)OCC(OCn2cnc3c(=O)[nH]c(N)nc32)CO1)c1ccc(O)cc1` (stereo unspecified), the result was inactive.
As for `Nc1nc2c(ncn2COC2COP(=O)(COCCO)OC2)c(=O)[nH]1` (stereo unspecified), the outcome was inactive.
As for `CCOC(=O)C(CC(C)C)NCP1(=O)OCC(OCn2cnc3c(=O)[nH]c(N)nc32)CO1` (stereo unspecified), the result was inactive.
As for `Nc1nc2c(ncn2COC2COP(=O)(CSCCO)OC2)c(=O)[nH]1` (stereo unspecified), the outcome was inactive.

The subject of the next series is Rattus norvegicus. In words: Immunomodulatory activity in high fat diet-induced obese Wistar albino rat impaired immune model assessed as TNF-alpha level at 8 mg/kg, po after 8 weeks by ELISA relative to vehicle-treated control. It counts as functional.
Settings: not given
As for `NCCNCP1(=O)OCC(OCn2cnc3c(=O)[nH]c(N)nc32)CO1` (stereo unspecified), the result was inactive.
Regarding `Nc1nc2c(ncn2COC2COP(=O)(COCCO)OC2)c(=O)[nH]1` (stereo unspecified), the outcome was inactive.
On to `Nc1nc2c(ncn2COC2COP(=O)(CSCCO)OC2)c(=O)[nH]1` (stereo unspecified), for which the result was inactive.
